One may read the inhibition as the change of the read-out against control, counted positive when it falls.

Structures are written as SMILES.

The values that follow come from paper PMC9086992 (Chemmedchem, 2022).

Common to all, as to format: cell-based
In experiment [1] the test system is MOLT-4 leukemia cell line. The experiment in a line: cells. Particulars: Homo sapiens, MOLT-4, 48 h, read-out: % inhibition MOLT-4.
In experiment [2] the test system is CCRF-CEM leukemia cell line. In words: cells. Conditions: Homo sapiens, 48 h, read-out: % inhibition CCRF-CEM.
Experiment [3] concerns RPMI-8226 leukemia cell line. In words: cells. Conditions: Homo sapiens, RPMI-8226, 48 h, read-out: % inhibition RPMI-8226.
The next experiment relates to HL-60 leukemia cell line. The experiment in a line: cells. Particulars: Homo sapiens, HL-60, 48 h, read-out: % inhibition HL-60.
A further experiment has as its system K562 leukemia cell line. Conditions: 10 μM compound, 48 h treatment, CellTiter-Blue.

`C[C@H]1[C@H](OC(=O)CCC(=O)O)O[C@@H]2O[C@@]3(C)CC[C@H]4[C@H](C)CC[C@@H]1[C@@]24OO3` [artesunic acid, Artesunic acid]: the inhibition at 10 µM stood at 9.9 ± 4.8% in experiment [1], 9.4 ± 4% in experiment [2], 27.3 ± 6.1% in experiment [3] and 44.3 ± 7.4% in the experiment on HL-60 leukemia cell line.

For `COc1cccc2c1C(=O)c1c(O)c3c(c(O)c1C2=O)C[C@@](O)(C(=O)CO)C[C@@H]3O[C@H]1C[C@H](N)[C@H](O)[C@H](C)O1` [doxorubicin], the inhibition at 10 µM in experiment [1] is 93.2 ± 2.6%; in experiment [2], 92.3 ± 1.3%; in experiment [3] it was 84.1 ± 3.2%; with HL-60 leukemia cell line, 91.5 ± 0.6%. In the experiment with K562 leukemia cell line, the “% inhibition K562” value turned out to be 78.2±4.1%.
